{"source": "patent US11766496B2", "about": "“Antimicrobial fabric freshening compositions containing octenidine dihydrochloride” (The Procter & Gamble Company, priority 2019, dated 2023)", "assay_type_in_all_cases": "cell-based", "key": {"[1]": {"test_system": "Escherichia coli (E. coli—ATCC #8739)", "assay": "Minimum Biocidal Concentration (MBC) in suspension", "procedure": "(§1) The antimicrobial efficacy of the antimicrobial agent in the composition is determined by measuring its Minimum Biocidal Concentration (MBC). The MBC is defined as the lowest absolute concentration of the particular antimicrobial active which provides complete kill (zero bacterial growth). The MBC of the compositions herein was determined against the bacterium, Staphylococcus aureus (S. aureus—ATCC #6538), a gram positive bacterium, and against Escherichia coli (E. coli—ATCC #8739), a gram negative bacterium. These microorganisms are representative of natural contaminants in many consumer and industrial applications. The bacteria inoculum was prepared by transferring several colonies from a Tryptone Soy Agar (TSA) plate to a saline solution (0.85% NaCl), the bacteria concentration in this saline solution was determined by measuring the % Transmittance at 425 nm and adjusted by either adding more bacteria or more saline solution until the % Transmittance at 425 nm was between 23-25% for S. aureus, and between 30-32% for E. coli, this % transmittance corresponds to a bacteria concentration of 10^8 CFU/ml. […] Each subsequent well (rows B to G) were dosed with 100 μL of the same fabric refresher composition, without the addition of the antimicrobial agent. 100 μL of the fabric refresher composition comprising the antimicrobial active was transferred from row A to row B and mixed. 100 μL of the composition was then transferred from row B to row C and mixed, and the process repeated to row G. As such, the concentration of the antimicrobial agent underwent two-fold dilution in adjacent wells, while the concentration of the other actives in the fabric refresher composition remained constant across all the wells in the same column. 10 μL of the 10^8 CFU/ml bacteria suspension in saline was added to wells A to F of the microtiter plate with row G kept as a nil bacteria control. The final volume in each well was 110 μL, except for row G which comprised 100 μL of the fabric refresher composition and no bacteria suspension. […] The plate was incubated at 32.5° C. for 48 h. MBC concentration is taken as the lowest concentration of the antimicrobial active at which no visible colony growth is observed on the TSA plate. The antibacterial efficacy of the bispyridinium alkane octenidine hydrochloride was compared to that of quaternary ammonium and alkylamine antimicrobial compounds in two fabric freshening compositions."}, "[2]": {"test_system": "Staphylococcus aureus (S. aureus—ATCC #6538)", "assay": "Minimum Biocidal Concentration (MBC) in suspension", "procedure": "as §1"}, "[3]": {"test_system": "Staphylococcus aureus (S. aureus—ATCC #6538)", "assay": "Antibacterial efficacy on fabrics (cotton carriers)", "conditions": "cotton fabric carriers; 0.05% antimicrobial active; 10 mins contact time; 5% horse serum soil load", "procedure": "The bactericidal efficacy on fabric surfaces of fabric refresher compositions comprising different antimicrobial agents was determined against the bacterium, Staphylococcus aureus (S. aureus—ATCC #6538). The bacteria inoculum was prepared by transferring several colonies from a Tryptone Soy Agar (TSA) plate to a saline solution (0.85% NaCl) comprising 5% horse serum as additional soil load, the bacteria concentration in this saline solution was determined by measuring the % Transmittance at 425 nm and adjusted by either adding more bacteria or more saline solution until the % Transmittance at 425 nm is between 23-25% which corresponds to a bacteria concentration of 10^8 CFU/ml.\nFabric carriers, 1 cm×1 cm disks of cotton sterilized by autoclaving, were inoculated with 50 μL of the 10^8 CFU/ml bacteria inoculum and incubated for 30 mins at 32° C. After this incubation period, fabric carriers were treated with 2.5 ml of different fabric refresher compositions comprising no antimicrobial active (reference), or 0.05% of either bispyridinium alkane (octenidine dihydrochloride) or N-(3-aminopropyl)-N-dodecylpropane-1,3-diamine (Lonzabac 12.30) as antimicrobial actives. […] 100 μL of each of the serial dilutions were plated on a TSA plate, plates were incubated at 32° C. for 48 hours, after this incubation time, the number of colonies in each plate was counted. […]"}, "[4]": {"conditions": "in fabric freshening Composition 1, 20 minutes contact time"}, "[5]": {"conditions": "in fabric freshening Composition 2, 20 minutes contact time"}}, "data": [{"compound": "CCCCCCCCN=c1ccn(CCCCCCCCCCn2ccc(=NCCCCCCCC)cc2)cc1.Cl.Cl", "note": "[Bispyridinium alkane (6), octenidine dihydrochloride]", "values": [{"measurement": "MBC (ppm) against E. coli", "setting": "[1]; [4]", "result": 500, "unit": "ppm"}, {"measurement": "MBC (ppm) against E. coli", "setting": "[1]; [5]", "result": 250, "unit": "ppm"}, {"measurement": "MBC (ppm) against S. aureus", "setting": "[2]; [4]", "result": 125, "unit": "ppm"}, {"measurement": "MBC (ppm) against S. aureus", "setting": "[2]; [5]", "result": 47, "unit": "ppm"}, {"measurement": "Number of bacteria extracted from treated fabrics", "setting": "[3]", "result": "no viable bacteria were recovered"}]}, {"compound": "N-alkyl dimethyl benzyl ammonium chloride [N-alkyl dimethyl benzyl ammonium chloride (10)]", "values": [{"measurement": "MBC (ppm) against E. coli", "setting": "[1]; [4]", "result": 1500, "unit": "ppm"}, {"measurement": "MBC (ppm) against S. aureus", "setting": "[2]; [4]", "result": 562.5, "unit": "ppm"}]}, {"compound": "N-alkyl dimethyl benzyl ammonium chloride [N-alkyl dimethyl benzyl ammonium chloride (9)]", "values": [{"measurement": "MBC (ppm) against E. coli", "setting": "[1]; [4]", "result": 3000, "unit": "ppm"}, {"measurement": "MBC (ppm) against S. aureus", "setting": "[2]; [4]", "result": 375, "unit": "ppm"}]}, {"compound": "CCCCCCCCCCCCN(CCCN)CCCN", "note": "[N-(3-aminopropyl)-N-dodecylpropane-1,3-diamine]", "values": [{"measurement": "MBC", "setting": "[1]; Escherichia coli, ATCC8739, 20 min, in fabric freshening Composition 1, 20 minutes contact time, read-out: MBC (ppm) against E. coli", "result": 3000, "unit": "µg/mL"}, {"measurement": "MBC (ppm) against E. coli", "setting": "[1]; [5]", "result": 3000, "unit": "ppm"}, {"measurement": "MBC", "setting": "[2]; Staphylococcus aureus, ATCC6538, 20 min, in fabric freshening Composition 1, 20 minutes contact time, read-out: MBC (ppm) against S. aureus", "result": 3000, "unit": "µg/mL"}, {"measurement": "MBC (ppm) against S. aureus", "setting": "[2]; [5]", "result": 3000, "unit": "ppm"}, {"measurement": "Number of bacteria extracted from treated fabrics", "setting": "[3]", "result": "about 10^4 CFU/ml"}]}]}
